In patent publication US20230310424A1, “METHODS AND MATERIALS FOR INCREASING NICOTINAMIDE PHOSPHORIBOSYL TRANSFERASE ACTIVITY” (University of Pittsburgh - Of the Commonwealth System of …, priority 2020, published 2023):

Each compound was assayed on NAD^+ levels in cells (assay: Assay for Total NADH and NAD+ Measurements in Cells). Settings: cells incubated overnight with test compound; 100 percent = no change vs untreated control cells; cell type and concentration not given.
Format: cell-based
Protocol: 2,000 cells/well and, at the same time, test compounds dissolved in media at the desired concentration were added to each well. The treated cells were incubated overnight in CO2 incubator. The cells were washed 6 times with PBS with 1 mM CaCl2 and 1 mM MgCl2. In the last wash, 10 μL of PBS with 1 mM CaCl2 and 1 mM MgCl2 per well were left in each well. Immediately thereafter, 10 μL 0.4% dodecyltrimethyl-ammonium bromide (DTAB) in phosphate buffer pH 8.0 as added, and the plates were shaked at 1000 rpm for 5 minutes. 60 μL reaction mix was added, and fluorescence at Ex/Em 530/585 was immediately monitored. A linear increase should be achieved with 8 cycles every 92 seconds, 10 number of flashes/well/cycle. The reaction mix was prepared per the following table, respecting the amount and order in which each component was added:
A percentage of 100 percent would indicate no increase or decrease in NAD^+ levels as compared to that measured for untreated control cells, while a percentage of 125 percent would indicate an increase in NAD^+ levels of 25 percent as compared to that measured for untreated control cells.

SMILES | A: increase in NAD^+ levels in cells in response to the test compound, as the percent of NAD^+ levels compared to that in the absence of the test compound [%]
CN1CCN(C(=O)c2ccc3nc(C(F)(F)F)c(-c4cccnc4)nc3c2)CC1 [BC19105] | 105
CN1CCN(C(=O)c2ccc3nc(-c4cccs4)c(-c4ccc(F)cc4)nc3c2)CC1 [BC19109] | 111
CN1CCN(C(=O)c2ccc3nc(-c4ccc(F)cc4)c(C(F)(F)F)nc3c2)CC1 [BC19110] | 105
Fc1ccc(-c2nc3cc(-c4nnn[nH]4)ccc3nc2C(F)(F)F)cc1 [BC19113] | 110
NC(=O)c1ccc2nc(-c3ccc(F)cc3)c(C(F)(F)F)nc2c1 [BC19117] | 116
O=C(O)c1ccc2nc(-c3ccc(F)cc3)c(-c3ccc(F)cc3)nc2c1 [BC19118] | 108
CNC(=O)c1ccc2nc(-c3cccs3)c(-c3ccc(F)cc3)nc2c1 [BC19119] | 112
Fc1ccc(-c2nc3ccc(-c4nnn[nH]4)cc3nc2-c2ccc(F)cc2)cc1 [BC19144] | 107
Fc1ccc(-c2nc3ccc(-c4ncco4)cc3nc2-c2ccc(F)cc2)cc1 [BC19145] | 106
CN1CCN(C(=O)c2ccc3nc(C(F)(F)F)c(-c4ccncc4)nc3c2)CC1 [BC19149] | 106
O=C(O)c1ccc2nc(-c3ccc(F)cc3)c(-c3cccs3)nc2c1 [BC19156] | 105
Fc1ccc(-c2nc3cc(-c4nnn[nH]4)ccc3nc2-c2cccs2)cc1 [BC19186] | 105
NC(=O)c1ccc2nc(-c3ccc(F)cc3)c(-c3cccs3)nc2c1 [BC19187] | 113
C#CCNC(=O)c1ccc2nc(-c3ccc(F)cc3)c(-c3cccs3)nc2c1 [BC19189] | 109
Cc1noc(-c2ccc3nc(-c4ccc(F)cc4)c(-c4ccc(F)cc4)nc3c2)n1 [BC19193] | 109
CS(=O)(=O)c1ccc(-c2nc3ccc(-c4ncco4)cc3nc2-c2ccc(F)cc2)s1 [BC19248] | 125
Cc1cnc(-c2ccc3nc(-c4ccc(F)cc4)c(-c4cccs4)nc3c2)o1 [BC19249] | 119
Cn1cnnc1-c1ccc2nc(-c3ccc(F)cc3F)c(-c3ccccc3)nc2c1 [BC19444] | 112
CN1CCN(C(=O)c2ccc3nc(-c4ccc(C#N)cc4)c(-c4ccc(C#N)cc4)nc3c2)CC1 [BC19446] | 106
C#CCNC(=O)c1ccc2nc(-c3cccc(N(C)C)c3)c(-c3cccc(N(C)C)c3)nc2c1 [BC19499] | 165
CN(C)c1cccc(-c2nc3ccc(C(=O)O)cc3nc2-c2cccc(N(C)C)c2)c1 [BC19500] | 107
CN(C)c1cccc(-c2nc3ccc(C(=O)NCCO)cc3nc2-c2cccc(N(C)C)c2)c1 [BC19502] | 115
COCCNC(=O)c1cnc2nc(-c3ccc(F)cc3)c(-c3ccc(F)cc3)nc2c1 [BC20200] | 132
CN(C)CCNC(=O)c1cnc2nc(-c3ccc(F)cc3)c(-c3ccc(F)cc3)nc2c1 [BC20201] | 133
C#CCNC(=O)c1cnc2nc(-c3ccc(F)cc3)c(-c3ccc(F)cc3)nc2c1 [BC20257] | 130
C#CCNC(=O)c1ccc2nc(-c3cccc(NC(=O)CN(C)C)c3)c(-c3cccc(NC(=O)CN(C)C)c3)nc2c1 [BC20287] | 120
